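All cell lines were grown in 96-well plates and treated with compound for 48 hours. At the TGI there is no net growth.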
Experiments:
Assay in all cases: inhibition of tumour cell growth, NCI panel, 48 h
[1] = tested on: T-47D breast
[2] = tested on: SNB-75 CNS
[3] = tested on: SF-295 CNS
[4] = tested on: 786-0 renal
[5] = tested on: SNB-19 CNS
[6] = tested on: SF-268 CNS
[7] = tested on: CCRF-CEM leukemia
[8] = tested on: KM12 colon
[9] = tested on: RXF 393 renal
[10] = tested on: SN12C renal
[11] = tested on: SR leukemia
[12] = tested on: IGROV1 ovarian
[13] = tested on: BT-549 breast
[14] = tested on: TK-10 renal
[15] = tested on: NCI-H460 lung
[16] = tested on: HOP-62 NSCLC
[17] = tested on: UACC-62 melanoma
[18] = tested on: MOLT-4 leukemia
[19] = tested on: NCI-H23 lung
[20] = tested on: SK-OV-3 ovarian
[21] = tested on: HT29 colon
[22] = tested on: UO-31 renal
[23] = tested on: LOX IMVI melanoma
[24] = tested on: SK-MEL-28 melanoma
[25] = tested on: OVCAR-4 ovarian
[26] = tested on: HL-60(TB) leukemia
[27] = tested on: HCT-15 colon
[28] = tested on: MCF7 breast
[29] = tested on: CAKI-1 renal
[30] = tested on: HS 578T breast
[31] = tested on: DU-145 prostate
[32] = tested on: U251 CNS
[33] = tested on: UACC-257 melanoma
[34] = tested on: PC-3 prostate
[35] = tested on: A498 renal
[36] = tested on: EKVX NSCLC
[37] = tested on: SK-MEL-2 melanoma
[38] = tested on: MALME-3M melanoma
[39] = tested on: MDA-MB-435
[40] = tested on: K-562 leukemia
[41] = tested on: NCI/ADR-RES ovarian
[42] = tested on: ACHN renal
[43] = tested on: HOP-92 NSCLC
[44] = tested on: SW-620 colon
[45] = tested on: SK-MEL-5 melanoma
[46] = tested on: RPMI-8226 leukemia
[47] = tested on: NCI-H226 lung
[48] = tested on: M14 melanoma
[49] = tested on: COLO 205 colon
[50] = tested on: A549 NSCLC
[51] = tested on: OVCAR-3 ovarian
[52] = tested on: MDA-N
[53] = tested on: OVCAR-5 ovarian
[54] = tested on: MDA-MB-231 breast
[55] = tested on: NCI-H522 lung
[56] = tested on: HCC-2998 colon
[57] = tested on: OVCAR-8 ovarian
[58] = tested on: HCT-116 colon
[59] = tested on: SF-539 CNS

## CC(C)NC(=O)OCc1c(COC(=O)NC(C)C)n(C)c2c1ccc1ccsc12
[1]
  TGI: > 100 µM
[2]
  TGI: 26.9 µM
[3]
  TGI: > 81.4 µM
[4]
  TGI: 23.4 µM
[5]
  TGI: 52.2 µM
[6]
  TGI: 25.4 µM
[7]
  TGI: 7.31 µM
[8]
  TGI: 38.3 µM
[9]
  TGI: 21.1 µM
[10]
  TGI: 35.2 µM
[11]
  TGI: 8.45 µM
[12]
  TGI: 53.3 µM
[13]
  TGI: 28.4 µM
[14]
  TGI: > 94.4 µM
[15]
  TGI: 21.2 µM
[16]
  TGI: 55.9 µM
[17]
  TGI: 22.9 µM
[18]
  TGI: 12.4 µM
[19]
  TGI: 21.8 µM
[20]
  TGI: 69.6 µM
[21]
  TGI: 38.5 µM
[22]
  TGI: 26.6 µM
[23]
  TGI: 30 µM
[24]
  TGI: 30 µM
[25]
  TGI: 23.7 µM
[26]
  TGI: 9.93 µM
[27]
  TGI: 28.1 µM
[28]
  TGI: > 53.1 µM
[29]
  TGI: 13.9 µM
[30]
  TGI: 48.5 µM
[31]
  TGI: 27.4 µM
[32]
  TGI: 35.8 µM
[33]
  TGI: 31.7 µM
[34]
  TGI: 39.9 µM
[35]
  TGI: 35.3 µM
[36]
  TGI: 48.1 µM
[37]
  TGI: 31.8 µM
[38]
  TGI: 18.3 µM
[39]
  TGI: 25.3 µM
[40]
  TGI: 54.8 µM
[41]
  TGI: 31.4 µM
[42]
  TGI: 14.2 µM
[43]
  TGI: 45.4 µM
[44]
  TGI: > 45 µM
[45]
  TGI: 22.7 µM
[46]
  TGI: 20.3 µM
[47]
  TGI: 28.7 µM
[48]
  TGI: 22.5 µM
[49]
  TGI: 26 µM
[50]
  TGI: 47.4 µM
[51]
  TGI: 40 µM
[52]
  TGI: 26.1 µM
[53]
  TGI: 54.1 µM
[54]
  TGI: 38.4 µM
[55]
  TGI: 21.5 µM
[56]
  TGI: 28.6 µM
[57]
  TGI: 40.5 µM
[58]
  TGI: 31.8 µM

## CCN(CC)c1ccc(/C=C/C2=NN(c3cccc(S(=O)(=O)O)c3)C3(C2)SCC(=O)N3c2nc3ccccc3s2)cc1 (stereo not given)
[1]
  TGI: 53.9 µM
[2]
  TGI: > 100 µM
[4]
  TGI: > 100 µM
[5]
  TGI: > 100 µM
[6]
  TGI: > 100 µM
[7]
  TGI: 55 µM
[8]
  TGI: 60.5 µM
[9]
  TGI: > 100 µM
[10]
  TGI: > 100 µM
[11]
  TGI: 86.2 µM
[12]
  TGI: > 100 µM
[13]
  TGI: > 100 µM
[14]
  TGI: 94 µM
[15]
  TGI: > 100 µM
[17]
  TGI: > 100 µM
[18]
  TGI: > 100 µM
[19]
  TGI: > 100 µM
[21]
  TGI: > 100 µM
[22]
  TGI: > 100 µM
[23]
  TGI: > 100 µM
[24]
  TGI: > 100 µM
[25]
  TGI: > 100 µM
[26]
  TGI: 80.3 µM
[27]
  TGI: > 100 µM
[28]
  TGI: 91.2 µM
[29]
  TGI: > 100 µM
[30]
  TGI: > 100 µM
[31]
  TGI: 75.7 µM
[32]
  TGI: > 100 µM
[33]
  TGI: > 100 µM
[34]
  TGI: > 100 µM
[35]
  TGI: 99 µM
[36]
  TGI: > 100 µM
[37]
  TGI: > 100 µM
[38]
  TGI: > 100 µM
[39]
  TGI: 47.2 µM
[40]
  TGI: > 100 µM
[41]
  TGI: > 100 µM
[42]
  TGI: > 100 µM
[43]
  TGI: > 100 µM
[44]
  TGI: > 100 µM
[45]
  TGI: > 100 µM
[46]
  TGI: 66.8 µM
[47]
  TGI: > 100 µM
[48]
  TGI: > 100 µM
[49]
  TGI: 81.1 µM
[50]
  TGI: > 100 µM
[59]
  TGI: > 100 µM
[52]
  TGI: > 100 µM
[53]
  TGI: > 100 µM
[54]
  TGI: > 100 µM
[55]
  TGI: 67.2 µM
[56]
  TGI: > 100 µM
[57]
  TGI: > 100 µM
[58]
  TGI: > 100 µM

## COC(=O)C12C3C4C1C1C2C3C41C(=O)NC(C)(C)CC(=O)O (stereo not given)
[1]
  TGI: > 100 µM
[2]
  TGI: > 100 µM
[3]
  TGI: > 100 µM
[4]
  TGI: > 100 µM
[5]
  TGI: > 100 µM
[6]
  TGI: > 100 µM
[7]
  TGI: > 100 µM
[8]
  TGI: > 100 µM
[9]
  TGI: > 100 µM
[10]
  TGI: > 100 µM
[11]
  TGI: > 100 µM
[12]
  TGI: > 100 µM
[13]
  TGI: > 100 µM
[14]
  TGI: > 100 µM
[15]
  TGI: 61 µM
[16]
  TGI: > 100 µM
[17]
  TGI: > 100 µM
[18]
  TGI: > 100 µM
[19]
  TGI: > 100 µM
[21]
  TGI: > 100 µM
[22]
  TGI: > 100 µM
[23]
  TGI: > 100 µM
[24]
  TGI: > 100 µM
[25]
  TGI: > 100 µM
[26]
  TGI: > 100 µM
[27]
  TGI: > 100 µM
[28]
  TGI: > 100 µM
[29]
  TGI: > 100 µM
[30]
  TGI: > 100 µM
[31]
  TGI: > 100 µM
[32]
  TGI: > 100 µM
[33]
  TGI: > 100 µM
[34]
  TGI: > 100 µM
[35]
  TGI: > 100 µM
[36]
  TGI: > 100 µM
[37]
  TGI: > 100 µM
[38]
  TGI: > 100 µM
[39]
  TGI: > 100 µM
[41]
  TGI: > 100 µM
[42]
  TGI: > 100 µM
[43]
  TGI: > 100 µM
[44]
  TGI: > 100 µM
[45]
  TGI: > 100 µM
[46]
  TGI: > 100 µM
[47]
  TGI: > 100 µM
[48]
  TGI: > 100 µM
[49]
  TGI: > 100 µM
[50]
  TGI: > 100 µM
[51]
  TGI: > 100 µM
[59]
  TGI: > 100 µM
[52]
  TGI: > 100 µM
[53]
  TGI: > 100 µM
[54]
  TGI: > 100 µM
[55]
  TGI: > 100 µM
[56]
  TGI: > 100 µM
[57]
  TGI: > 100 µM
[58]
  TGI: > 100 µM

Source: PubChem BioAssay (NCI)
